In patent US20250066323A1, “INHIBITORS OF HUMAN RESPIRATORY SYNCYTIAL VIRUS AND METAPNEUMOVIRUS” (priority 2023, published 2025) one finds EC50 data, which are given here for 23 molecules.

Structures are written as SMILES. Read-outs that look alike come from different tables or passages of the source. Bounds are passed on as bounds.

For one assay, the system named is hMPV-GFP. Description: hMPV-GFP viral replication assay. Format: cell-based, human metapneumovirus. The note with it: read-out: hMPV EC50. As to the method: GFP expressing rgHMPV #3 p3 was generated in Dr. Buchholz's lab (Biacchesi S. et al., J Virol. 2007 June; 81(11): 6057-6067.) and propagated in VERO cells (kidney tissue derived from a normal, adult African green monkey. ATCC Cat #CCL-81) with infection Multiplicity of Infection (MOI) of 0.1. Virus was harvested 4 days after infection by collecting all culture material and freeze-thaw the viral culture in liquid nitrogen twice. To generating virus working stocks, thaw frozen samples in 37° C. water bath then centrifuge at 218 g for 15 min at 4° C. Add 1/10 of 10×SPG (Biological Industries 06-3061-01-5A), mix, aliquot supernatant, and quick-freeze in liquid nitrogen then transfer to −80° C. freezer for storage. Virus titer was determined by performing titration test in 96-well plates and calculate approximate virus titer using GFP event/well data.
Compound plates were prepared by dispensing compounds dissolved in DMSO into wells of 384 well coming 3985 polystyrene flat clear bottom optical imaging microplates (202.5 nL/well) using an ECHO acoustic dispenser. Each compound was tested in a 10-point serial 3-fold dilution (typical final concentrations: 40,300 nM-2 nM). […] Continuous culture of VERO cells were maintained in complete culture media (OptiMEM supplemented with 2 mM GlutaMAX™ and 100 U/ml Penicillin-Streptomycin). To set up the assay, trypsinize VERO cells with 0.25% Trypsin-EDTA until cells dislodge, then re-suspend cells with 1 mL FBS. Spin down cells at 300 g for 5 min and wash cells twice in culture media, then count cells using default parameters on ViCell. Cells were then diluted to 100,000 cells/ml (5,000 cells/50 μl) in complete culture media+TrypLE Select (80 μl/ml). Add hMPV-GFP virus to cells at 125,000 pfu/ml (MOI=1.25). Mix by gentle inversion. 10 μl/well of 100% DMSO was dispensed to CellTiter-Glo (CTG) assay Max_E controls wells. Dispense cells at 50 μl/well using Bravo and 50 μl filtered tips into compound plates. Cover plates with MicroClime lids loaded with 7.5 ml of assay media to minimize evaporation. Lightly shake plate for 10 minutes at room temperature then incubate at 37 degrees C. and 5% CO2 for 48 hrs. Following incubation, distinct, GFP-expressing cells are counted using an Acumen imaging system with appropriate settings. A same-well CTG assay is performed by adding 10 μl/well reconstituted CellTiter-Glo reagent (Promega G7573) and reading plates on PerkinElmer Envision according to manufacturer's instructions. Raw data were loaded and analyzed in ActivityBase. Antiviral IC50 and cytotoxicity CC50 values were determined using a 4 parameter logistic fit based on the Levenberg-Marquardt algorithm. Model: 205-4 Parameter Logistic.

The next assay relates to RSV-A2-GFP. The assay can be described thus: RSV-A2-GFP viral replication assay. Format: cell-based, Human Respiratory Syncytial Virus. The source says:
GFP sequence was derived from pJTI™ R4 Dest CMV N-EmGFP pA Vector (Invitrogen) and was cloned into the intergenic sequence between wild-type RSV-A2 P and M genes using standard recombineering techniques. Recombinant RSV-A2-GFP was propagated in Hep2 cells (human cells contains HeLa marker chromosomes and were derived via HeLa contamination, ATCC CCL-23) with infection Multiplicity of Infection (MOI) of 0.1. Virus was harvested 3 days after infection by collecting all culture material and freeze-thaw the viral culture in liquid nitrogen for at least 5 times. To generating virus working stocks, thaw frozen samples in 37° C. water bath then centrifuge at 218 g for 15 min at 4° C. Add 1/10 of 10×SPG (Biological Industries 06-3061-01-5A), mix, aliquot supernatant, and quick-freeze in liquid nitrogen then transfer to −80° C. freezer for storage. Virus titer was determined by automated plaque assay in HEp-2 cells following methods described previously (Wen Z. et al.; J Virol Methods. 2019 January; 263:88-95).
Calu-1 cells (human lung epidermoid carcinoma, ATCC HTB-54) assay ready freezedown (ARF generation described separately) were used in assays. Compound plates were prepared by dispensing compounds dissolved in DMSO into wells of 384 well coming 3985 polystyrene flat clear bottom optical imaging microplates (202.5 nL/well) using an ECHO acoustic dispenser. Each compound was tested in a 10-point serial 3-fold dilution (typical final concentrations: 403 nM-0.02 nM and 40.3 nM-0.002 nM). […] To set up the assay, thaw ARF vial(s) in 37° C. water bath until small ice crystal remain and resuspend into assay media (DMEM containing 2% FBS, 100 U/ml Penicillin-Streptomycin). Count cells using default parameters on ViCell and dilute to 20,000 cells per ml in assay media. Add RSV GFP to cells at 24,000 pfu/ml (MOI=1.2). Mix by gentle inversion. 10 μl/well of 100% DMSO was dispensed to CellTiter-Glo (CTG) assay Max_E controls wells. Dispense cells at 50 μl/well using Bravo and 50 μl filtered tips into compound plates. Cover plates with MicroClime lids loaded with 7.5 ml of assay media to minimize evaporation. Incubate at 37 degrees C. and 5% CO2 for 96 hrs. Following incubation, distinct, GFP-expressing cells are counted using an Acumen imaging system with appropriate settings. A same-well CTG assay is performed by adding 10 μl/well reconstituted CellTiter-Glo reagent (Promega G7573) and reading plates on PerkinElmer Envision according to manufacturer's instructions. Raw data were loaded and analyzed in ActivityBase. Antiviral IC50 and cytotoxicity CC50 values were determined using a 4 parameter logistic fit based on the Levenberg-Marquardt algorithm. Model: 205-4 Parameter Logistic.
Calu-1 cells were purchased from ATCC (Cat #HTB-54) and are expanded in growth media (DMEM containing 10% FBS, 100 U/ml Penicillin-Streptomycin). To make ARF, remove and discard cell culture media, briefly rinse the cell layer with PBS to remove all traces of serum. Add 2.5 ml of TrypLE Express solution and incubate until cells dislodge, then add growth media and resuspend the cells by gentle pipetting. Count cells for concentration and determine viability using a ViCell. Centrifuge at RT, 300 g for 5 min to pellet cells. Gently aspirate supernatant, flick pellet to loosen cells. Resuspend cells in an appropriate volume of freezing medium (DMEM containing 10% DMSO, 10% FBS, 100 U/ml Penicillin-Streptomycin) to achieve 5×10^6/ml. Transfer 1 ml of cell suspension to freezing vials. Put vials to CoolCell cryopreservation container and place CoolCell container upright in a −80° C. freezer overnight before transferring vials to liquid nitrogen vapor for storage.

The mark [1] stands for this setting: human metapneumovirus, Vero, 48 h.
The mark [2] stands for this setting: human respiratory syncytial virus, Calu-1, 96 h, read-out: RSV EC50, Calu-1 cells, RSV-A2-GFP MOI=1.2, 96 hrs, GFP-expressing cells counted.
The mark [3] stands for this setting: VERO cells, hMPV-GFP MOI=1.25, 48 hrs, GFP-expressing cells counted.
Where [4] appears, read: read-out: RSV EC50, Calu-1 cells, RSV-A2-GFP MOI=1.2, 96 hrs, GFP-expressing cells counted.

Usually EC50 stands for the concentration giving half of the maximal effect. For `Cn1nc(-c2cscn2)cc1C(=O)NCC(C)(O)c1cc(C(C)(C)N)cc(-n2ccc3c(F)cccc32)n1` (single isomer, unassigned) [Example 12-B], the concentration giving a half-maximal response (EC50) in the assay on hMPV-GFP (setting [1]) was above 100 nM; with RSV-A2-GFP (setting [2]) it was below 10 nM.

Take `Cn1nc(-c2cscn2)cc1C(=O)NCC(C)(O)c1cc2c(c(-c3ccc(F)cc3)n1)OCC2(C)N` (single isomer, unassigned) [Example 28-D]: the results for the EC50 in the assay on hMPV-GFP (setting [3]) and in the assay with RSV-A2-GFP (setting [4]) were above 100 nM and 10 to 100 nM, respectively.

Consider `Cn1nc(-c2cscn2)cc1C(=O)NCC(C)(O)c1cc2c(c(-c3ccc(F)cc3)n1)OCC2(C)N` (single isomer, unassigned) [Example 28-A], for which the values for the EC50 with hMPV-GFP (setting [1]) and with RSV-A2-GFP (setting [4]) were above 100 nM and below 10 nM, respectively.

For the molecule `Cn1nc(-c2cscn2)cc1C(=O)NCC(C)(O)c1cc2c(c(-c3ccc(F)cc3)n1)OCC2(C)N` (single isomer, unassigned) [Example 28-C], the EC50 in the assay on hMPV-GFP (setting [3]) and with RSV-A2-GFP (setting [4]) was above 100 nM each time.

As for `Cn1nc(-c2cscn2)cc1C(=O)NCC(C)(O)c1cc(C2(C)CCNC2)cc(-c2ccc(F)cc2)n1` (single isomer, unassigned) [Example 27-B], the EC50 in the assay with hMPV-GFP (setting [3]) and with RSV-A2-GFP (setting [4]) was above 100 nM each time.

In the case of `Cc1nc(-c2ncccn2)sc1C(=O)NCC(O)(c1cc(C(C)(C)N)cc(-c2ccc(F)cc2)n1)C(F)(F)F` (single isomer, unassigned) [Example 25-A], the concentration giving a half-maximal response (EC50) in the assay with hMPV-GFP (setting [1]) was above 100 nM; in the assay on RSV-A2-GFP (setting [4]) it was 10 to 100 nM.

With `Cn1nc(-c2cscn2)cc1C(=O)NCC(C)(O)c1cc(C2(C)CCNC2)cc(-c2ccc(F)cc2)n1` (single isomer, unassigned) [Example 27-C], the concentration for a half-maximal effect (EC50) was above 100 nM in the assay with hMPV-GFP (setting [3]) and below 10 nM with RSV-A2-GFP (setting [4]).

For `Cn1nc(-c2cscn2)cc1C(=O)NCC(C)(O)c1cc(C(C)(C)N)cc(-c2ccc(F)c(F)c2)n1` (single isomer, unassigned) [Example 15-B], the results for the concentration for a half-maximal effect (EC50) in the assay on hMPV-GFP (setting [1]) and with RSV-A2-GFP (setting [2]) were above 100 nM and below 10 nM, respectively.

For the molecule `Cn1nc(-c2ccon2)cc1C(=O)NCC(C)(O)c1cc(C(C)(C)N)cc(-c2ccc(F)cc2)n1` (single isomer, unassigned) [Example 03-B], the EC50 with hMPV-GFP (setting [1]) was above 100 nM; in the assay on RSV-A2-GFP (setting [2]), below 10 nM.

In the case of `Cc1cc(F)ccc1-c1cc(C(C)(C)N)cc(C(C)(O)CNC(=O)c2cc(-c3cscn3)nn2C)n1` (single isomer, unassigned) [Example 19-B], the EC50 in the assay with hMPV-GFP (setting [1]) is above 100 nM; with RSV-A2-GFP (setting [2]) it was below 10 nM.

`Cn1nc(-c2cscn2)cc1C(=O)NCC(C)(O)c1cc(C2(C)CCNC2)cc(-c2ccc(F)cc2)n1` (single isomer, unassigned) [Example 27-D]: the EC50 was above 100 nM with hMPV-GFP (setting [3]) and below 10 nM with RSV-A2-GFP (setting [4]).

On to `CCC(O)(CNC(=O)c1cc(-c2cscn2)nn1C)c1cc(C(C)(C)N)cc(-c2ccc(F)cc2)n1` (single isomer, unassigned) [Example 21-A], for which the values for the concentration giving a half-maximal response (EC50) in the assay on hMPV-GFP (setting [1]) and in the assay on RSV-A2-GFP (setting [2]) were above 100 nM and below 10 nM, respectively.

Consider `Cn1nc(-c2cscn2)cc1C(=O)NCC(O)(c1cc(C(C)(C)N)cc(-c2ccc(F)cc2)n1)C(F)F` (single isomer, unassigned) [Example 24-B], for which the concentration for a half-maximal effect (EC50) in the assay on hMPV-GFP (setting [3]) was above 100 nM; in the assay with RSV-A2-GFP (setting [4]), 10 to 100 nM.

For the molecule `CC(C)(N)c1cc(-c2ccc(F)cc2)nc(C(C)(O)CNC(=O)c2cc(-c3cscn3)ns2)c1` (single isomer, unassigned) [Example 09-B], the figures for the 50% effective concentration (EC50) in the assay with hMPV-GFP (setting [1]) and with RSV-A2-GFP (setting [2]) were above 100 nM and below 10 nM, respectively.

Take `Cn1nc(-n2cccn2)cc1C(=O)NCC(C)(O)c1cc(C(C)(C)N)cc(-c2ccc(F)cc2)n1` (single isomer, unassigned) [Example 02-B]: the EC50 with hMPV-GFP (setting [1]) is above 100 nM; in the assay with RSV-A2-GFP (setting [2]) it was below 10 nM.

On to `Cn1nc(-c2cscn2)cc1C(=O)NCC(C)(O)c1cc(C(C)(C)N)cc(-c2ccc(Cl)cc2)n1` (single isomer, unassigned) [Example 13-B], for which the concentration for a half-maximal effect (EC50) is above 100 nM in the assay with hMPV-GFP (setting [1]) and below 10 nM with RSV-A2-GFP (setting [2]).

Turning to `Cn1nc(-c2cscn2)cc1C(=O)NCC(O)(c1cc(C(C)(C)N)cc(-c2ccc(F)cc2)n1)C(F)(F)F` (single isomer, unassigned) [Example 26-A], the concentration for a half-maximal effect (EC50) is above 100 nM with hMPV-GFP (setting [1]) and below 10 nM in the assay with RSV-A2-GFP (setting [2]).

Consider `Cn1nc(-c2cscn2)cc1C(=O)NCC(O)(c1cc(C(C)(C)N)cc(-c2ccc(F)cc2)n1)C1CC1` (single isomer, unassigned) [Example 23-B], for which the results for the half-maximal effective concentration (EC50) in the assay on hMPV-GFP (setting [1]) and in the assay with RSV-A2-GFP (setting [2]) were above 100 nM and below 10 nM, respectively.

Take `Cn1nc(-c2ncco2)cc1C(=O)NCC(C)(O)c1cc(C(C)(C)N)cc(-c2ccc(F)cc2)n1` (single isomer, unassigned) [Example 04-B]: the figures for the concentration for a half-maximal effect (EC50) with hMPV-GFP (setting [1]) and with RSV-A2-GFP (setting [2]) were above 100 nM and below 10 nM, respectively.

Regarding `Cn1nc(-c2cscn2)cc1C(=O)NCC(C)(O)c1cc(C(C)(C)N)cc(-c2ccc(F)cc2)n1` (single isomer, unassigned) [Example 05-B], the values for the concentration giving a half-maximal response (EC50) with hMPV-GFP (setting [1]) and in the assay with RSV-A2-GFP (setting [2]) were above 100 nM and below 10 nM, respectively.

For the molecule `Cn1nc(-c2cscn2)cc1C(=O)NCC(C)(O)c1cc(C(C)(C)N)cc(-c2ccc(F)cc2F)n1` (single isomer, unassigned) [Example 18-B], the values for the EC50 in the assay with hMPV-GFP (setting [1]) and in the assay on RSV-A2-GFP (setting [2]) were above 100 nM and below 10 nM, respectively.

For the molecule `CCn1nc(-c2cscn2)cc1C(=O)NCC(C)(O)c1cc(C(C)(C)N)cc(-c2ccc(F)cc2)n1` (single isomer, unassigned) [Example 06-B], the EC50 in the assay on hMPV-GFP (setting [1]) was above 100 nM; with RSV-A2-GFP (setting [2]), below 10 nM.

Regarding `CCOc1cc(C(=O)NCC(C)(O)c2cc(C(C)(C)N)cc(-c3ccc(F)cc3)n2)n(C)n1` (single isomer, unassigned) [Example 01-B], the EC50 was above 100 nM with hMPV-GFP (setting [3]) and below 10 nM in the assay with RSV-A2-GFP (setting [4]).
